From ChEMBL document CHEMBL6078657, “Thiazolidinedione-based structure modification of ergosterol peroxide provides thiazolidinedione-conjugated derivatives as potent agents against breast cancer cells through a PI3K/AKT/mTOR pathway” (Bioorg Med Chem, 2025)

Assays:
Type in all cases: functional, cell-based
A549 = test: Antiproliferative activity against human A549 cells assessed as cell viability measured after 48 hrs incubation by MTT assay; details: A549, 48 h
HepG2 = test: Antiproliferative activity against human HepG2 cells assessed as cell viability measured after 48 hrs incubation by MTT assay; details: HepG2, 48 h
MCF7 = test: Antiproliferative activity against human MCF7 cells assessed as cell viability measured after 48 hrs incubation by MTT assay; details: MCF7, 48 h

Molecule `CC(C)[C@@H](C)/C=C/[C@@H](C)[C@H]1CC[C@@H]2[C@]1(C)CC[C@H]1[C@]23C=C[C@]2(C[C@@H](OC(=O)NCCNC(=O)CN4C(=O)S/C(=C\c5ccc(F)cc5)C4=O)CC[C@]12C)OO3` has an IC50 (A549) of 9.17 µM, an IC50 (HepG2) of 13.3 µM and an IC50 (MCF7) of 11.6 µM.

`CC(C)[C@@H](C)/C=C/[C@@H](C)[C@H]1CC[C@@H]2[C@]1(C)CC[C@H]1[C@]23C=C[C@]2(C[C@@H](OC(=O)N4CCN(C(=O)CN5C(=O)S/C(=C\c6ccc(Cl)cc6Cl)C5=O)CC4)CC[C@]12C)OO3` gave an IC50 (A549) of 11.7 µM, an IC50 (HepG2) of 15.6 µM and an IC50 (MCF7) of 12.9 µM.

For `Cc1ccc(/C=C2/SC(=O)N(CC(=O)O[C@H]3CC[C@]4(C)[C@H]5CC[C@]6(C)[C@@H]([C@H](C)/C=C/[C@H](C)C(C)C)CC[C@H]6[C@@]56C=C[C@]4(C3)OO6)C2=O)cc1`, the IC50 (A549) was 14.2 µM, the IC50 (HepG2) was 14.6 µM and the IC50 (MCF7) was 11.5 µM.

Molecule `CC(C)[C@@H](C)/C=C/[C@@H](C)[C@H]1CC[C@@H]2[C@]1(C)CC[C@H]1[C@]23C=C[C@]2(C[C@@H](OC(=O)CN4C(=O)S/C(=C/c5cccs5)C4=O)CC[C@]12C)OO3` has an IC50 (A549) of 7.4 µM, an IC50 (HepG2) of 17.3 µM and an IC50 (MCF7) of 16.6 µM.

With `COc1ccc(/C=C2/SC(=O)N(CC(=O)O[C@H]3CC[C@]4(C)[C@H]5CC[C@]6(C)[C@@H]([C@H](C)/C=C/[C@H](C)C(C)C)CC[C@H]6[C@@]56C=C[C@]4(C3)OO6)C2=O)c(OC)c1OC` the IC50 (A549) was 9.1 µM, the IC50 (HepG2) was 10.9 µM and the IC50 (MCF7) was 9.66 µM.

Molecule `COc1ccccc1/C=C1/SC(=O)N(CC(=O)O[C@H]2CC[C@]3(C)[C@H]4CC[C@]5(C)[C@@H]([C@H](C)/C=C/[C@H](C)C(C)C)CC[C@H]5[C@@]45C=C[C@]3(C2)OO5)C1=O` has an IC50 (A549) of 13.1 µM, an IC50 (HepG2) of 18.9 µM and an IC50 (MCF7) of 14.3 µM.

`CC(C)[C@@H](C)/C=C/[C@@H](C)[C@H]1CC[C@H]2C3=CC=C4C[C@@H](OC(=O)NCCNC(=O)CN5C(=O)S/C(=C\c6cccc7ccccc67)C5=O)CC[C@]4(C)[C@H]3CC[C@]12C` was tested, and the IC50 (A549) was > 80 µM, the IC50 (HepG2) was > 80 µM and the IC50 (MCF7) was > 80 µM.

For `CC(C)[C@@H](C)/C=C/[C@@H](C)[C@H]1CC[C@@H]2[C@]1(C)CC[C@H]1[C@]23C=C[C@]2(C[C@@H](OC(=O)N4CCN(C(=O)CN5C(=O)CSC5=O)CC4)CC[C@]12C)OO3`, the IC50 (A549) was 4.82 µM, the IC50 (HepG2) was 8.97 µM and the IC50 (MCF7) was 6.37 µM.

`CC(C)[C@@H](C)/C=C/[C@@H](C)[C@H]1CC[C@@H]2[C@]1(C)CC[C@H]1[C@]23C=C[C@]2(C[C@@H](OC(=O)N4CCN(C(=O)CN5C(=O)S/C(=C\c6ccccc6)C5=O)CC4)CC[C@]12C)OO3` gave an IC50 (A549) of 6.05 µM, an IC50 (HepG2) of 9.71 µM and an IC50 (MCF7) of 8.48 µM.

Molecule `CC(C)[C@@H](C)/C=C/[C@@H](C)[C@H]1CC[C@@H]2[C@]1(C)CC[C@H]1[C@]23C=C[C@]2(C[C@@H](OC(=O)CN4C(=O)S/C(=C/c5ccc(Br)cc5)C4=O)CC[C@]12C)OO3` has an IC50 (A549) of 9.5 µM, an IC50 (HepG2) of 17.8 µM and an IC50 (MCF7) of 12.3 µM.

`CC(C)[C@@H](C)/C=C/[C@@H](C)[C@H]1CC[C@@H]2[C@]1(C)CC[C@H]1[C@]23C=C[C@]2(C[C@@H](OC(=O)N4CCN(C(=O)CN5C(=O)S/C(=C\c6ccc(Cl)cc6)C5=O)CC4)CC[C@]12C)OO3` gave an IC50 (A549) of 5.94 µM, an IC50 (HepG2) of 9.58 µM and an IC50 (MCF7) of 8.94 µM.

In the case of `CC(C)[C@@H](C)/C=C/[C@@H](C)[C@H]1CC[C@@H]2[C@]1(C)CC[C@H]1[C@]23C=C[C@]2(C[C@@H](OC(=O)CN4C(=O)S/C(=C/c5ccc(Cl)cc5Cl)C4=O)CC[C@]12C)OO3`, the IC50 (A549) is reported as 11 µM, the IC50 (HepG2) is reported as 13.1 µM and the IC50 (MCF7) is reported as 10.2 µM.

`CC(C)[C@@H](C)/C=C/[C@@H](C)[C@H]1CC[C@@H]2[C@]1(C)CC[C@H]1[C@]23C=C[C@]2(C[C@@H](OC(=O)CN4C(=O)S/C(=C/c5ccco5)C4=O)CC[C@]12C)OO3` showed an IC50 (A549) of 15 µM, an IC50 (HepG2) of 20.2 µM and an IC50 (MCF7) of 21 µM.

`CC(C)[C@@H](C)/C=C/[C@@H](C)[C@H]1CC[C@@H]2[C@]1(C)CC[C@H]1[C@]23C=C[C@]2(C[C@@H](OC(=O)CN4C(=O)S/C(=C/c5ccc(F)c(Cl)c5)C4=O)CC[C@]12C)OO3` gave an IC50 (A549) of 7.92 µM, an IC50 (HepG2) of 15.8 µM and an IC50 (MCF7) of 11.1 µM.

Work on `CC(C)[C@@H](C)/C=C/[C@@H](C)[C@H]1CC[C@@H]2[C@]1(C)CC[C@H]1[C@]23C=C[C@]2(C[C@@H](OC(=O)N4CCN(C(=O)CN5C(=O)S/C(=C\c6ccoc6)C5=O)CC4)CC[C@]12C)OO3` yielded an IC50 (A549) of 10.4 µM, an IC50 (HepG2) of 19.8 µM and an IC50 (MCF7) of 16.7 µM.

For `COc1cccc(/C=C2\SC(=O)N(CC(=O)N3CCN(C(=O)O[C@H]4CC[C@]5(C)[C@H]6CC[C@]7(C)[C@@H]([C@H](C)/C=C/[C@H](C)C(C)C)CC[C@H]7[C@@]67C=C[C@]5(C4)OO7)CC3)C2=O)c1`, the IC50 (A549) was 10.1 µM, the IC50 (HepG2) was 12.7 µM and the IC50 (MCF7) was 14.3 µM.

`COc1ccccc1/C=C1\SC(=O)N(CC(=O)N2CCN(C(=O)O[C@H]3CC[C@]4(C)[C@H]5CC[C@]6(C)[C@@H]([C@H](C)/C=C/[C@H](C)C(C)C)CC[C@H]6[C@@]56C=C[C@]4(C3)OO6)CC2)C1=O` was tested, and the IC50 (A549) was 10.2 µM, the IC50 (HepG2) was 22.6 µM and the IC50 (MCF7) was 15.4 µM.

`COc1ccc(/C=C2\SC(=O)N(CC(=O)N3CCN(C(=O)O[C@H]4CC[C@]5(C)[C@H]6CC[C@]7(C)[C@@H]([C@H](C)/C=C/[C@H](C)C(C)C)CC[C@H]7[C@@]67C=C[C@]5(C4)OO7)CC3)C2=O)c(OC)c1OC` was tested, and the IC50 (A549) was 5.17 µM, the IC50 (HepG2) was 9.75 µM and the IC50 (MCF7) was 8.96 µM.

Molecule `CC(C)/C=C1\SC(=O)N(CC(=O)N2CCN(C(=O)O[C@H]3CC[C@]4(C)[C@H]5CC[C@]6(C)[C@@H]([C@H](C)/C=C/[C@H](C)C(C)C)CC[C@H]6[C@@]56C=C[C@]4(C3)OO6)CC2)C1=O` has an IC50 (A549) of 7.69 µM, an IC50 (HepG2) of 10.5 µM and an IC50 (MCF7) of 8.89 µM.

`CC(C)[C@@H](C)/C=C/[C@@H](C)[C@H]1CC[C@@H]2[C@]1(C)CC[C@H]1[C@]23C=C[C@]2(C[C@@H](OC(=O)N4CCN(C(=O)CN5C(=O)S/C(=C\c6cccc7ccccc67)C5=O)CC4)CC[C@]12C)OO3` gave an IC50 (A549) of 7.88 µM, an IC50 (HepG2) of 14.5 µM and an IC50 (MCF7) of 9.41 µM.

`CC(C)[C@@H](C)/C=C/[C@@H](C)[C@H]1CC[C@@H]2[C@]1(C)CC[C@H]1[C@]23C=C[C@]2(C[C@@H](OC(=O)CN4C(=O)S/C(=C/c5ccc(C(C)(C)C)cc5)C4=O)CC[C@]12C)OO3` showed an IC50 (A549) of 8.31 µM, an IC50 (HepG2) of 15.4 µM and an IC50 (MCF7) of 9.44 µM.

Molecule `CC(C)[C@@H](C)/C=C/[C@@H](C)[C@H]1CC[C@@H]2[C@]1(C)CC[C@H]1[C@]23C=C[C@]2(C[C@@H](OC(=O)CN4C(=O)S/C(=C/C5CC5)C4=O)CC[C@]12C)OO3` has an IC50 (A549) of 13 µM, an IC50 (HepG2) of 13.1 µM and an IC50 (MCF7) of 9.35 µM.

`CC(C)[C@@H](C)/C=C/[C@@H](C)[C@H]1CC[C@@H]2[C@]1(C)CC[C@H]1[C@]23C=C[C@]2(C[C@@H](OC(=O)CN4C(=O)CSC4=O)CC[C@]12C)OO3` was tested, and the IC50 (A549) was 7.52 µM, the IC50 (HepG2) was 17.7 µM and the IC50 (MCF7) was 10.4 µM.

With `CC(C)[C@@H](C)/C=C/[C@@H](C)[C@H]1CC[C@@H]2[C@]1(C)CC[C@H]1[C@]23C=C[C@]2(C[C@@H](OC(=O)NCCNC(=O)CN4C(=O)S/C(=C\c5ccc(C(C)(C)C)cc5)C4=O)CC[C@]12C)OO3` the IC50 (A549) was 6.68 µM, the IC50 (HepG2) was 9.86 µM and the IC50 (MCF7) was 10.7 µM.
